Laboratory results reported in patent US20220041616A1, “SPIRO COMPOUND AND MEDICAL USES THEREOF” (The National Institutes of Pharmaceutical R&D Co., Ltd., priority 2018, published 2022).

Target: T1, ACC1 (Homo sapiens, UniProt Q13085)
T1 construct: purchased BPS bioscience
Test: In vitro inhibition of ACC1 activity, ADP-Glo Kinase Analysis
Format: biochemical
Conditions: 1 nM ACC1, 10 μM acetyl-CoA, 20 μM ATP
Excerpt: ADP-Glo™ Kinase Analysis Kit (Promega) is used for the in vitro analysis of the inhibitory effect of the present compound on ACC1 or ACC2. ADP-Glo™ Kinase Analysis is a kinase detection analysis of luminescence method. ADP is produced in the process of catalyzing the substrate by ACC. ADP is converted into ATP which is then converted into light by Ultra-Glo™ luciferase. ADP is quantified by detecting the light signal, thus the enzyme activity can be measured by quantification of the ADP amount produced during the enzyme reaction. The analysis is carried out in two steps: in the first step, after the kinase reaction, a portion of ADP-Glo™ reagent equal in volume to the kinase reaction system is added to terminate the reaction and consume the remaining ATP; in the second step, a kinase detection reagent is added, which not only converts ADP into ATP, but also uses a coupled luciferase/luciferin reaction to detect newly synthesized ATP.
a. 10 mM compound stock solution (the present compound was dissolved in 100% DMSO to prepare the 10 mM stock solution) was diluted 50-fold to 200 μM with 100% DMSO, and then diluted in equal proportions (1:3) in a 96-well dilution plate (249944, Nunc). The gradient concentrations of the compound were 200 μM, 66.67 μM, 22.22 μM, 7.41 μM, 2.47 μM, 0.823 μM, 0.274 μM, 0.0914 μM, 0.0305 μM, 0.0102 μM, 0.00339 μM and 0.00113 μM.
b. 4.5 μL ACC1 working solution (BPS bioscience) (2.22 nM) was added to each well of a 384-well test plate (6007290, Perkin Elmer).
c. 0.5 μL of the serially diluted compound (prepared in step a) was added to each well of the 384-well test plate, which was centrifuged at 1000 rpm for 1 min and then incubated at room temperature for 15 min. The reaction system with compound GS-0976 at a final concentration of 0.1 μM was used as positive control; the reaction system with no compound but DMSO at a final concentration of 5% was used as negative control.
d. In the 384-well test plate (prepared in step c), 5 μL of the substrate working solution was added to each well to start the enzymatic reaction. The plate was centrifuged at 1000 rpm for 1 min and then incubated at room temperature for 30 min. The final concentration of each component in the ACC1 reaction system: 1 nM ACC1, 10 μM acetyl-CoA, 30 mM NaHCO3, and 20 μM ATP. The final concentration of each component in the ACC2 reaction system: 1.1 nM ACC2, 20 μM acetyl-CoA, 20 mM NaHCO3, and 15 μM ATP. Final concentrations of test compounds: 10 μM, 3.33 μM, 1.11 μM, 0.37 μM, 0.123 μM, 0.0411 μM, 0.0137 μM, 0.00457 μM, 0.00152 μM, 0.00051 μM, 0.00017 μM and 0.000056 μM. The final concentration of DMSO was 5% (v/v).
e. 10 μL of ADP-Glo reagent was added to each well of the 384-well test plate (prepared in step d), which was centrifuged at 1000 rpm for 1 min and then incubated at room temperature for 40 min.
f. 20 μL of kinase detection reagent was added to each well of the 384-well test plate (prepared in step e), which was centrifuged at 1000 rpm for 1 min and then incubated at room temperature for 40 min.
g. The chemiluminescence signal was detected with Perkin Elmer EnVision 2104.
ACC1 working solution and substrate working solution were both prepared with 1× kinase reaction buffer. The buffer was consisting of 50 mM HEPES buffer, 2 mM magnesium chloride, 0.01% BRIJ-35, 2 mM potassium citrate, 50 μg/mL BSA and 2 mM DTT.
The average value of the positive and negative control well and the standard deviation were calculated. The inhibition percentage was calculated according to the following formula: 100×[1−(compound−average value of positive control)/(average value of negative control-average value of positive control)].
IC50 of the compound was obtained using GraphPad Prism 6 software according to the following nonlinear fitting formula:
Y=Bottom+(Top−Bottom)/(1+10^((Log IC50−X)×Hillslope)), […]

IC50 | Molecule
< 10 nM | COc1ccccc1[C@H](CN1C(=O)C2(CCN(C(=O)C(=O)O)CC2)C(=O)c2c1sc(-c1ncco1)c2C)OC1CCOCC1 [Compound 27, (R)-2-(7′-(2-(2-methoxyphenyl)-2-((tetrahydro-2H-pyran-4-yl)oxy)ethyl)-3′-methyl-2′-(oxazol-2-yl)-4′,6′-dioxo-6′,7′-dihydro-4′H-spiro[piperidine-4,5′-thieno[2,3-d]pyridin]-1-yl)-2-oxoacetic Acid]
< 10 nM | CNC(=O)N1CCC2(CC1)C(=O)c1c(sc(-c3ncco3)c1C)N(C[C@H](OC1CCOCC1)c1ccccc1OC)C2=O [Compound 32]
< 10 nM | COc1ccccc1[C@H](CN1C(=O)C2(CCN(CC(=O)O)CC2)C(=O)c2c1sc(-c1ncco1)c2C)OC1CCOCC1 [Compound 23, (R)-2-(7′-(2-(2-methoxyphenyl)-2-((tetrahydro-2H-pyran-4-yl)oxy)ethyl)-3′-methyl-2′-(oxazol-2-yl)-4′,6′-dioxo-6′,7′-dihydro-4′H-spiro[piperidine-4,5′-thieno[2,3-d]pyridin]-1-yl)acetic Acid]
10 to 100 nM | COc1ccccc1[C@H](CN1C(=O)C2(CCN(C(C)(C)C(=O)O)CC2)C(=O)c2c1sc(-c1ncco1)c2C)OC1CCOCC1 [Compound 25, (R)-2-(7′-(2-(2-methoxyphenyl)-2-((tetrahydro-2H-pyran-4-yl)oxy)ethyl)-3′-methyl-2′-(oxazol-2-yl)-4′,6′-dioxo-6′,7′-dihydro-4′H-spiro[piperidine-4,5′-thieno[2,3-d]pyridin]-1-yl)-2-methylpropionic Acid]
100 to 500 nM | Cc1c(-c2ncco2)sc2c1C(=O)C1(CCC(C(=O)O)CC1)C(=O)N2CC(OC1CCOCC1)c1ccccc1 (mixture of isomers) [Compound 6, 3′-methyl-2′-(oxazol-2-yl)-4′,6′-dioxo-7′-(2-phenyl-2-((tetrahydro-2H-pyran-4-yl)oxy)ethyl)-6′,7′-dihydro-4′H-spiro[cyclohexane-1,5′-thieno[2,3-b]pyridine]-4-carboxylic acid]
< 10 nM | COc1ccccc1C(CN1C(=O)C2(CCC(C(=O)O)C2)C(=O)c2c1sc(-c1ncco1)c2C)OC1CCOCC1 (single isomer, unassigned) [Compound 5c, 7′-(2-(2-methoxyphenyl)-2-((tetrahydro-2H-pyran-4-yl)oxy)ethyl)-3′-methyl-2′-(oxazol-2-yl)-4′,6′-dioxo-6′,7′-dihydro-4′H-spiro[cyclopentane-1,5′-thieno[2,3-b]pyridine]-3-carboxylic Acid]
< 10 nM | COc1ccccc1[C@H](CN1c2sc(-c3ncco3)c(C)c2C(=O)[C@]2(C[C@H](C(=O)N[C@H](C)C(=O)O)C2)C1=O)OC1CCOCC1 [Compound 14, ((1S,3S)-7′-((R)-2-(2-methoxyphenyl)-2-((tetrahydro-2H-pyran-4-yl)oxy)ethyl)-3′-methyl-2′-(oxazol-2-yl)-4′,6′-dioxo-6′,7′-dihydro-4′H-spiro[cyclobutane-1,5′-thieno[2,3-b]pyridine]-3-carbonyl)-D-alanine]
< 10 nM | COC(=O)CN(C)C(=O)[C@H]1C[C@@]2(C1)C(=O)c1c(sc(-c3ncco3)c1C)N(C[C@H](OC1CCOCC1)c1ccccc1OC)C2=O [Compound 15-1, Methyl N-((1s,3S)-7′-((R)-2-(2-methoxyphenyl)-2-((tetrahydro-2H-pyran-4-yl)oxy)ethyl)-3′-methyl-2′-(oxazol-2-yl)-4′,6′-dioxo-6′,7′-dihydro-4′H-spiro[cyclobutane-1,5′-thieno[2,3-b]pyridine]-3-carbonyl)-N-methylglycinate]
10 to 100 nM | COC(=O)CN1CCC2(CC1)C(=O)c1c(sc(-c3ncco3)c1C)N(C[C@H](OC1CCOCC1)c1ccccc1OC)C2=O [Compound 22, methyl (R)-2-(7′-(2-(2-methoxyphenyl)-2-((tetrahydro-2H-pyran-4-yl)oxy)ethyl)-3′-methyl-2′-(oxazol-2-yl)-4′,6′-dioxo-6′,7′-dihydro-4′H-spiro[piperidine-4,5′-thieno[2,3-d]pyridine]-1-yl)carboxylate]
< 10 nM | COc1ccccc1C(CN1C(=O)C2(CCC(C(=O)O)C2)C(=O)c2c1sc(-c1ncco1)c2C)OC1CCOCC1 (mixture of isomers) [Compound 5, 7′-(2-(2-methoxyphenyl)-2-((tetrahydro-2H-pyran-4-yl)oxy)ethyl)-3′-methyl-2′-(oxazol-2-yl)-4′,6′-dioxo-6′,7′-dihydro-4′H-spiro[cyclopentane-1,5′-thieno[2,3-b]pyridine]-3-carboxylic Acid]
< 10 nM | COc1ccccc1[C@H](CN1c2sc(-c3ncco3)c(C)c2C(=O)[C@]2(C[C@H](C(=O)N[C@@H](C)C(=O)O)C2)C1=O)OC1CCOCC1 [Compound 13]
< 10 nM | CNC(=O)[C@H]1C[C@@]2(C1)C(=O)c1c(sc(-c3ncco3)c1C)N(C[C@H](OC1CCOCC1)c1ccccc1OC)C2=O [Compound 9]
100 to 500 nM | Cc1c(-c2ncco2)sc2c1C(=O)C1(CCC(C)(C(=O)O)C1)C(=O)N2CC(OC1CCOCC1)c1ccccc1 (mixture of isomers) [Compound 4, 3,3′-dimethyl-2′-(oxazol-2-yl)-4′,6′-dioxo-7′-(2-phenyl-2-((tetrahydro-2H-pyran-4-yl)oxy)ethyl)-6′,7′-dihydro-4′H-spiro[cyclopentane-1,5′-thieno[2,3-b]pyridine]-3-carboxylic Acid]
< 10 nM | COc1ccccc1[C@H](CN1C(=O)C2(CCN(S(=O)(=O)O)CC2)C(=O)c2c1sc(-c1ncco1)c2C)OC1CCOCC1 [Compound 30]
> 500 nM | Cc1c(-c2ncco2)sc2c1C(=O)C1(CCCC1)C(=O)N2CC(OC1CCOCC1)c1ccccc1 (stereo not shown) [Compound 2, 3′-methyl-2′-(oxazol-2-yl)-7′-(2-phenyl-2-((tetrahydro-2H-pyran-4-yl)oxy)ethyl)-4′H-spiro[cyclopentane-1,5′-thieno[2,3-b]pyridine]-4′,6′(7′H)-dione]
> 500 nM | Cc1c(-c2ncco2)sc2c1C(=O)C1(CCC1)C(=O)N2CC(OC1CCOCC1)c1ccccc1 (racemic) [Compound 1, 3′-methyl-2′-(oxazol-2-yl)-7′-(2-phenyl-2-((tetrahydro-2H-pyran-4-yl)oxy)ethyl)-4′H-spiro[cyclobutane-1,5′-thieno[2,3-b]pyridine]-4′,6′(7′H)-dione]
100 to 500 nM | Cc1c(-c2ncco2)sc2c1C(=O)C1(CCC(C(=O)O)C1)C(=O)N2CC(OC1CCOCC1)c1ccccc1 (mixture of isomers) [Compound 3, 3′-methyl-2′-(oxazol-2-yl)-4′,6′-dioxo-7′-(2-phenyl-2-((tetrahydro-2H-pyran-4-yl)oxy)ethyl)-6′,7′-dihydro-4′H-spiro[cyclopentane-1,5′-thieno[2,3-b]pyridine]-3-carboxylic Acid]
< 10 nM | COc1ccccc1[C@H](CN1c2sc(-c3ncco3)c(C)c2C(=O)[C@]2(C[C@H](C(=O)NCC(=O)O)C2)C1=O)OC1CCOCC1 [Compound 10, ((1s,3S)-7′-((R)-2-(2-methoxyphenyl)-2-((tetrahydro-2H-pyran-4-yl)oxy)ethyl)-3′-methyl-2′-(oxazol-2-yl)-4′,6′-dioxo-6′,7′-dihydro-4′H-spiro[cyclobutane-1,5′-thieno[2,3-b]pyridine]-3-carbonyl)glycine]

Molecule | IC50
7′-(2-(2-methoxyphenyl)-2-((tetrahydro-2H-pyran-4-yl)oxy)ethyl)-3′-methyl-2′-(oxazol-2-yl)-4′,6′-dioxo-6′,7′-dihydro-4′H-spiro[cyclohexane-1,5′-thieno[2,3-b]pyridine]-3-carboxylic Acid [Compound 7a] | > 500 nM
